From US12612412B2, “Antiviral heterocyclic compounds” (Enanta Pharmaceuticals, Inc., priority 2021, dated 2026) come the findings set out here.

The first experiment concerns genotype A, "Long" strain RSV. As to the kind of experiment: RSV-A assay (CPE protection in Hep-2 cells, ATPlite readout). It is filed as cell-based, Human respiratory syncytial virus (HRSV). Particulars: human respiratory syncytial virus, RSV-A Long strain, MOI 0.1, CPE protection, read-out: Human RSV-A (“Long”) EC50. The procedure, abridged:
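ATPlite luminescence (cellular ATP) served as the measure of cell health after 5 days of infection. Hep-2 cells at 8,000 per well received duplicate 2-fold compound dilutions plus virus at MOI 0.1, and EC50 was calculated from CPE protection.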
On the technique in general: In ATP-based viability assays light output follows the ATP content of the culture.
On to `Cc1cnc2c(OC(F)F)cc(C(=O)NC[C@](O)(c3cc4c(c(-c5cc(F)c(F)c(Cl)c5)n3)OC[C@]4(C)C(N)=O)C3CC3)cc2c1` [Example 1213], for which the EC50 is < 200 nM.

In the case of `Cc1cnc2c(OC(F)F)cc(C(=O)NC[C@](O)(c3cc4c(c(-c5ccc(F)cc5Cl)n3)OC[C@]4(C)C(N)=O)C3CC3)cc2c1` [Example 1215], the EC50 was < 200 nM.

For `COc1cc(C(=O)NC[C@@](O)(c2cc3c(c(-c4ccc(C(F)F)cc4)n2)OC[C@]3(C)C(N)=O)C(F)(F)F)cc2cn(C3CC3)nc12` [Example 895], the EC50 is > 200 nM.

Turning to `COc1cc(C(=O)NC[C@](O)(c2cc3c(c(-c4ccc(F)c(F)c4Cl)n2)OC[C@]3(C)C(=O)NC2(C)CC2)C(F)(F)F)cc2cn(C3CC3)nc12` [Example 1204], the EC50 was < 200 nM.

For `COc1cc(C(=O)NC[C@](O)(c2cc3c(c(-c4cc(F)c(F)c(F)c4)n2)OC[C@]3(C)C(N)=O)C2CC2)cc2cn(C3CC3)nc12` [Example 1273], the EC50 was < 200 nM.

`C[C@]1(C(N)=O)COc2c1cc([C@@](O)(CNC(=O)c1cc(OC3CC3)c3nn(C(F)F)cc3c1)C1CC1)nc2-c1cccc(Cl)c1F` [Example 1198]: the EC50 is < 200 nM.

`COc1cc(C(=O)NC[C@](O)(c2cc3c(c(-c4ccc(Cl)cc4Cl)n2)OC[C@]3(C)C(N)=O)C(F)(F)F)cc2cn(C3CC3)nc12` [Example 1254]: the EC50 is < 200 nM.

`COc1cc(C(=O)NC[C@](O)(c2cc3c(c(-c4cccc(F)c4Cl)n2)OC[C@]3(C)C(N)=O)C2CC2)cc2cc(C)c(Cl)nc12` [Example 1073]: the EC50 is < 200 nM.

As for `COc1cc(C(=O)NC[C@](O)(c2cc3c(c(-c4cccc(F)c4Cl)n2)OC[C@]3(C)C(N)=O)C(F)(F)F)cc2cn(C3CC3)nc12` [Example 1107], the EC50 was < 200 nM.

In the case of `COc1cc(C(=O)NC[C@](O)(c2cc3c(c(-c4ccc(F)cc4)n2)OC[C@]3(C(N)=O)C(F)F)C(F)(F)F)cc2cn(C3CC3)nc12` [Example 998], the EC50 was < 200 nM.

With `COc1cc(C(=O)NC[C@](O)(c2cc3c(c(-c4ccc(Cl)c(F)c4Cl)n2)OC[C@]3(C)C(N)=O)C(F)(F)F)cc2cn(C3CC3)nc12` [Example 1260], the EC50 is < 200 nM.

Consider `COc1cc(C(=O)NC[C@](O)(c2cc3c(c(-c4ccc(F)c(Cl)c4F)n2)OC[C@]3(C)C(N)=O)C2(F)CC2)cc2cc(Br)cnc12` [Example 1114], for which the EC50 is < 200 nM.

Consider `COc1cc(C(=O)NC[C@](O)(c2cc3c(c(-c4cc(Cl)c(F)cc4F)n2)OC[C@]3(C)C(=O)NC2(C)CC2)C(F)(F)F)cc2cn(C3CC3)nc12` [Example 1205], for which the EC50 is < 200 nM.

Staying with this experiment, now noted: human respiratory syncytial virus, genotype A “Long” strain RSV, MOI 0.1, CPE protection, read-out: Human RSV-A (“Long”).
As for `COc1cc(C(=O)NC[C@](O)(c2cc3c(c(-c4ccc(F)cc4)n2)OC[C@@]3(C(N)=O)C2CC2)C(F)(F)F)cn2cc(C3CC3)nc12` [Example 272], the EC50 was < 200 nM.

Regarding `C[C@]1(C(N)=O)COc2c1cc([C@@](O)(CNC(=O)c1ccn3nc(C4CC4)cc3c1)C(F)(F)F)nc2-c1ccc(F)cc1` [Example 88], the EC50 was < 200 nM.

Regarding `NC(=O)C1(C(F)F)COc2c1cc([C@@](O)(CNC(=O)c1cc(F)c3nc(N)sc3c1)C(F)(F)F)nc2-c1ccc(F)cc1` (stereo partly shown) [Example 258], the EC50 is < 200 nM.

Turning to `COc1cc(C(=O)NC[C@](O)(c2cc3c(c(-c4ccc(F)cc4)n2)OCC3(C(N)=O)C(F)F)C(F)(F)F)ccc1OC1CC1` (stereo partly shown) [Example 261], the EC50 was < 200 nM.

Turning to `COc1cc(C(=O)NC[C@](O)(c2cc3c(c(-c4ccc(F)cc4)n2)OC[C@]3(CF)C(N)=O)C(F)(F)F)cn2cc(C3CC3)nc12` [Example 292], the EC50 is < 200 nM.

For the compound `COc1cc(C(=O)NC[C@](O)(c2cc3c(c(-c4ccc(F)cc4)n2)OC[C@]3(C(N)=O)C2CC2)C(F)(F)F)cc2cc(Cl)c(C)nc12` [Example 275], the EC50 is < 200 nM.

As for `Cn1ccc(C(=O)NC[C@](O)(c2cc3c(c(-c4ccc(F)cc4)n2)OC[C@]3(C)C(N)=O)C(F)(F)F)c1` [Example 407], the EC50 was > 200 nM.

For `Cc1cnc2c(Nc3ccc(C(C)C)nn3)cc(C(=O)NC[C@](O)(c3cc4c(c(-c5ccc(F)cc5)n3)OC[C@]4(C)C(N)=O)C(F)(F)F)cc2c1` [Example 115], the EC50 was < 200 nM.

For the compound `C[C@]1(C(N)=O)COc2c1cc([C@@](O)(CNC(=O)c1c[nH]nc1-c1ccccc1)C(F)(F)F)nc2-c1ccc(F)cc1` [Example 446], the EC50 was > 200 nM.

As for `C[C@]1(C(N)=O)COc2c1cc([C@@](O)(CNC(=O)c1cnoc1C1CC1)C(F)(F)F)nc2-c1ccc(F)cc1` [Example 342], the EC50 was > 200 nM.

Turning to `COc1cccc(-c2nn(-c3ccccc3)cc2C(=O)NC[C@](O)(c2cc3c(c(-c4ccc(F)cc4)n2)OC[C@]3(C)C(N)=O)C(F)(F)F)c1` [Example 447], the EC50 is > 200 nM.

In the case of `C[C@]1(C(N)=O)COc2c1cc([C@@](O)(CNC(=O)c1cc3c(cc1Cl)NC(=O)C3)C(F)(F)F)nc2-c1ccc(F)cc1` [Example 341], the EC50 was > 200 nM.

`COc1cc(C(=O)NC[C@](O)(c2cc3c(c(-c4ccc(F)cc4)n2)OC[C@]3(C)C(N)=O)C(F)(F)F)ccc1OC[C@@H](C)N` [Example 150]: the EC50 was > 200 nM.

As for `COc1cc(C(=O)NC[C@](O)(c2cc3c(c(-c4ccc(F)cc4)n2)OCC3(C(N)=O)C(F)F)C(F)(F)F)cc2cn(C(F)F)nc12` (stereo partly shown) [Example 255], the EC50 was < 200 nM.

`CC(C)(O)CNC(=O)Nc1cc(C(=O)NC[C@](O)(c2cc3c(c(-c4ccc(F)cc4)n2)OC[C@]3(C)C(N)=O)C(F)(F)F)cc2cc(C3CC3)cnc12` [Example 215]: the EC50 was < 200 nM.

As for `C[C@]1(C(N)=O)COc2c1cc([C@@](O)(CNC(=O)c1ccno1)C(F)(F)F)nc2-c1ccc(F)cc1` [Example 364], the EC50 is > 200 nM.

For the compound `C[C@]1(C(N)=O)COc2c1cc([C@@](O)(CNC(=O)c1cnc3[nH]ccc3c1)C(F)(F)F)nc2-c1ccc(F)cc1` [Example 380], the EC50 was < 200 nM.

With `C[C@]1(C(N)=O)COc2c1cc([C@@](O)(CNC(=O)c1n[nH]c3ncccc13)C(F)(F)F)nc2-c1ccc(F)cc1` [Example 393], the EC50 was > 200 nM.

On to `Cc1c(C(=O)NC[C@](O)(c2cc3c(c(-c4ccc(F)cc4)n2)OC[C@]3(C)C(N)=O)C(F)(F)F)sc2ccccc12` [Example 435], for which the EC50 was > 200 nM.

As for `C[C@]1(C(N)=O)COc2c1cc([C@@](O)(CNC(=O)c1cnc3[nH]cnc3c1)C(F)(F)F)nc2-c1ccc(F)cc1` [Example 365], the EC50 was > 200 nM.

In the case of `Cn1ccc2cc(C(=O)NC[C@](O)(c3cc4c(c(-c5ccc(F)cc5)n3)OC[C@]4(C)C(N)=O)C(F)(F)F)ccc21` [Example 176], the EC50 was > 200 nM.

As for `C[C@]1(C(N)=O)COc2c1cc([C@@](O)(CNC(=O)c1cn3cc(F)ccc3n1)C(F)(F)F)nc2-c1ccc(F)cc1` [Example 809], the EC50 was > 200 nM.

In the case of `CC[C@@]1(C(N)=O)COc2c1cc([C@@](O)(CNC(=O)c1cc(OC3CC3)c3ncccc3c1)C(F)(F)F)nc2-c1ccc(F)cc1` [Example 244], the EC50 is > 200 nM.

As to `Cc1oncc1C(=O)NC[C@](O)(c1cc2c(c(-c3ccc(F)cc3)n1)OC[C@]2(C)C(N)=O)C(F)(F)F` [Example 356], the EC50 is > 200 nM.

For `COc1cc(C(=O)NC[C@](O)(c2cc3c(c(-c4ccc(F)cc4)n2)OC[C@]3(C)C(N)=O)C(F)(F)F)cc2cc(C)c(C(=O)O)nc12` [Example 5], the EC50 is > 200 nM.

Take `C[C@@H](O)CNc1nc2ccc(C(=O)NC[C@](O)(c3cc4c(c(-c5ccc(F)cc5)n3)OC[C@]4(C)C(N)=O)C(F)(F)F)cc2s1` [Example 164]: the EC50 was < 200 nM.

`C[C@]1(C(N)=O)COc2c1cc([C@@](O)(CNC(=O)c1ccc3[nH]c(C4CC4)nc3c1)C(F)(F)F)nc2-c1ccc(F)cc1` [Example 193]: the EC50 was > 200 nM.

For `Cc1cc2ccc(C(=O)NC[C@](O)(c3cc4c(c(-c5ccc(F)cc5)n3)OC[C@]4(C)C(N)=O)C(F)(F)F)cn2c1` [Example 189], the EC50 is > 200 nM.

As for `COC(=O)Nc1cc(C(=O)NC[C@](O)(c2cc3c(c(-c4ccc(F)cc4)n2)OC[C@]3(C)C(N)=O)C(F)(F)F)ccc1F` [Example 340], the EC50 is < 200 nM.

In the case of `CC[C@@]1(C(N)=O)COc2c1cc([C@@](O)(CNC(=O)c1cc(OC)c3ncc(C(F)(F)F)cc3c1)C(F)(F)F)nc2-c1ccc(F)cc1` [Example 248], the EC50 was > 200 nM.

`COc1cc(C(=O)NC[C@](O)(c2cc3c(c(-c4ccc(F)cc4Cl)n2)OC[C@]3(C)C(N)=O)C2CC2)cc2cn(C3CC3)nc12` [Example 535]: the EC50 was < 200 nM.

Consider `C[C@]1(C(N)=O)COc2c1cc([C@@](O)(CNC(=O)c1ccc3nc(NCCO)sc3c1)C(F)(F)F)nc2-c1ccc(F)cc1` [Example 162], for which the EC50 was > 200 nM.

Take `C[C@]1(C(N)=O)COc2c1cc([C@@](O)(CNC(=O)c1cccc3cc[nH]c13)C(F)(F)F)nc2-c1ccc(F)cc1` [Example 366]: the EC50 is < 200 nM.

`C[C@@H](O)COc1ccc(C(=O)NC[C@](O)(c2cc3c(c(-c4ccc(F)cc4)n2)OC[C@@]3(C(N)=O)C2CC2)C(F)(F)F)cc1OC1CC1` [Example 278]: the EC50 is < 200 nM.

In the case of `Cc1ccc2nc(C(=O)NC[C@](O)(c3cc4c(c(-c5ccc(F)cc5)n3)OC[C@]4(C)C(N)=O)C(F)(F)F)cn2c1` [Example 398], the EC50 is > 200 nM.

As to `C[C@@H](O)COc1ccc(C(=O)NC[C@](O)(c2cc3c(c(-c4ccc(F)cc4)n2)OC[C@]3(CF)C(N)=O)C(F)(F)F)cc1OC1CC1` [Example 294], the EC50 is < 200 nM.

As for `C[C@]1(C(N)=O)COc2c1cc([C@@](O)(CNC(=O)c1ccn3nc(C4CC4)cc3c1)C1CC1)nc2-c1ccc(F)cc1` [Example 332], the EC50 is < 200 nM.

Take `C[C@]1(C(N)=O)COc2c1cc([C@@](O)(CNC(=O)c1ccc3nncn3c1)C(F)(F)F)nc2-c1ccc(F)cc1` [Example 109]: the EC50 was > 200 nM.

Consider `COc1cc(C(=O)NC[C@](O)(c2cc3c(c(-c4ccc(F)cc4)n2)OC[C@]3(C)C(N)=O)C(F)(F)F)cc2cn(CC(F)(F)F)nc12` [Example 99], for which the EC50 was < 200 nM.
